Source: US20260103760A1, “ANALYTIC METHOD FOR DIAGNOSING OVARIAN CANCER RESISTANT TO PACLITAXEL” (CHA UNIVERSITY INDUSTRY-ACADEMIC COOPERATION FOUNDATION, priority 2022, published 2026)

System: Taxol-resistant ovarian cancer cell line SKOV3/TAX compared to ovarian cancer cell line SKOV3
Assay: Cell viability of SKOV3 and SKOV3/TAX cultured in medium containing Taxol (cell counting kit-8)
Format: cell-based
Details: medium containing 30 μM Taxol, FIG. 1
Method: Ovarian cancer cell line SKOV3 (HTB-77™, Sigma-Aldrich, St. Louis, MO, USA) was cultured in a DMEM medium (31800-022, Gibco, Grand Island, NY, USA) containing 5 μM Taxol, 10% FBS and 1% Antibiotic-Antimycotic (15240062, Gibco, Grand Island, NY, USA) at 37° C. in a 5% CO2 incubator for 1 month. The cells were harvested and cultured continuously in a 5% CO2 incubator at 37° C., in a medium containing 10 µM Taxol for 2 months, in a medium containing 20 µM Taxol for 2 months, and in a medium containing 30 μM Taxol for 2 months (total for 7 months), and then the viable cell line was isolated. The isolated cell line was named SKOV3/TAX and the following experiments were performed using as an ovarian cancer cell line resistant to Taxol. In order to compare Taxol resistance, the SKOV3 and SKOV3/TAX cells were cultured at 5,000 cells per well in a 96-well plate in a medium containing Taxol at a concentration of 30 μM per well. Then, cell viabilities were measured at 0, 24, and 48 hours with a cell counting kit-8 (CK04-11, Dojindo, Rockville, MD, USA).

Structure (SMILES): CC(=O)O[C@H]1C(=O)[C@@]2(C)[C@H]([C@H](OC(=O)c3ccccc3)[C@]3(O)C[C@H](OC(=O)[C@H](O)[C@@H](NC(=O)c4ccccc4)c4ccccc4)C(C)=C1C3(C)C)[C@]1(OC(C)=O)CO[C@@H]1C[C@@H]2O [Taxol, paclitaxel]
- cell viability of SKOV3/TAX compared to SKOV3 (increase) (24 hours, 5,000 cells per well): approximately 1.67 fold
- cell viability of SKOV3/TAX compared to SKOV3 (increase) (48 hours, 5,000 cells per well): approximately 2.40 fold
